Target: T1, Human ATX protein (Homo sapiens, UniProt Q13822)
T1 construct: made in house
Assay: ATX biochemical assay (FRET, FS-3 substrate)
Conditions: FRET assay, FS-3 2 μM, ATX 1.0 μg/mL, 30 minutes preincubation, 2 hours reaction at room temperature; read-out: IC50
Summary of the method: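 FRET read-out: cleavage of FS-3 (2 μM final) unquenches fluorescein, measured at 485/538 nm after 2 h at room temperature. Before substrate addition, in-house-expressed human autotaxin (1.0 μg/mL) sat with compound for 30 min in pH 7.4 Tris/NaCl/KCl/CaCl2/MgCl2 buffer containing fatty acid free-BSA at 1 mg/mL.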

O=C(C[C@H]1CC[C@H](C(=O)O)CC1)N1CCc2c(C3CC3)nn(Cc3ccc(F)cc3)c2C1 [Example 5-38, trans-4-(2-(3-Cyclopropyl-1-(4-fluorobenzyl)-4,5-dihydro-1H-pyrazolo[3,4-c]pyridin-6(7H)-yl)-2-oxoethyl)cyclohexanecarboxylic acid] and O=C(C[C@H]1CC[C@H](C(=O)O)CC1)N1CCc2c(CO)nn(Cc3ccc(F)cc3)c2C1 [Example 5-45, trans-4-(2-(1-(4-Fluorobenzyl)-3-(hydroxymethyl)-4,5-dihydro-1H-pyrazolo[3,4-c]pyridin-6(7H)-yl)-2-oxoethyl)cyclohexanecarboxylic acid] cannot be ordered by IC50: ≤ 100 nM for the first, ≤ 100 nM for the second.

O=C(C[C@H]1CC[C@H](C(=O)O)CC1)N1CCc2c(-c3ccccc3)nn(Cc3ccc(F)cc3)c2C1 [Example 5-39, trans-4-(2-(1-(4-Fluorobenzyl)-3-phenyl-4,5-dihydro-1H-pyrazolo[3,4-c]pyridin-6(7H)-yl)-2-oxoethyl)cyclohexanecarboxylic acid] and O=C(C[C@H]1CC[C@H](C(=O)O)CC1)N1CCc2c(-c3cccnc3)nn(Cc3ccc(F)cc3)c2C1 [Example 5-40, trans-4-(2-(1-(4-Fluorobenzyl)-3-(pyridin-3-yl)-4,5-dihydro-1H-pyrazolo[3,4-c]pyridin-6(7H)-yl)-2-oxoethyl)cyclohexanecarboxylic acid] cannot be ordered by IC50: ≤ 100 nM for the first, ≤ 100 nM for the second.

CCOc1nn(Cc2ccc(F)cc2)c2c1CCN(C(=O)C[C@H]1CC[C@H](C(=O)O)CC1)C2 [Example 5-42, trans-4-(2-(3-Ethoxy-1-(4-fluorobenzyl)-4,5-dihydro-1H-pyrazolo[3,4-c]pyridin-6(7H)-yl)-2-oxoethyl)cyclohexanecarboxylic acid] and CN(C)c1nn(Cc2ccc(F)cc2)c2c1CCN(C(=O)C[C@H]1CC[C@H](C(=O)O)CC1)C2 [Example 5-43, trans-4-(2-(3-(Dimethylamino)-1-(4-fluorobenzyl)-4,5-dihydro-1H-pyrazolo[3,4-c]pyridin-6 (7H)-yl)-2-oxoethyl)cyclohexanecarboxylic acid] cannot be ordered by IC50: ≤ 100 nM for the first, ≤ 100 nM for the second.

O=C(C[C@H]1CC[C@H](C(=O)O)CC1)N1CCc2c(C(F)F)nn(Cc3ccc(F)cc3)c2C1 [Example 5-44, trans-4-(2-(3-(Difluoromethyl)-1-(4-fluorobenzyl)-4,5-dihydro-1H-pyrazolo[3,4-c]pyridin-6(7H)-yl)-2-oxoethyl)cyclohexanecarboxylic acid] and O=C(C[C@H]1CC[C@H](C(=O)O)CC1)N1CCc2c(C(F)(F)F)nn(Cc3ccc(F)cc3)c2C1 [Example 7-1, trans-4-(2-(1-(4-Fluorobenzyl)-3-(trifluoromethyl)-4,5-dihydro-1H-pyrazolo[3,4-c]pyridin-6(7H)-yl)-2-oxoethyl)cyclohexanecarboxylic acid] cannot be ordered by IC50: ≤ 100 nM for the first, ≤ 100 nM for the second.

First: N#Cc1nn(Cc2ccc(F)cc2)c2c1CCN(C(=O)C[C@H]1CC[C@H](C(=O)O)CC1)C2 [Example 5-46, trans-4-(2-(3-Cyano-1-(4-fluorobenzyl)-4,5-dihydro-1H-pyrazolo[3,4-c]pyridin-6(7H)-yl)-2-oxoethyl)cyclohexanecarboxylic acid]
Second: NC(=O)c1nn(Cc2ccc(F)cc2)c2c1CCN(C(=O)C[C@H]1CC[C@H](C(=O)O)CC1)C2 [Example 5-47, trans-4-(2-(3-Carbamoyl-1-(4-fluorobenzyl)-4,5-dihydro-1H-pyrazolo[3,4-c]pyridin-6(7H)-yl)-2-oxoethyl)cyclohexanecarboxylic acid]
The IC50 of the first is lower: ≤ 100 nM for the first, 250 to 500 nM for the second.

O=C(O)C[C@H]1CC[C@H](CC(=O)N2CCc3c(C(F)(F)F)nn(Cc4ccc(F)cc4)c3C2)CC1 [Example 5-48, 2-(trans-4-(2-(1-(4-Fluorobenzyl)-3-(trifluoromethyl)-4,5-dihydro-1H-pyrazolo[3,4-c]pyridin-6(7H)-yl)-2-oxoethyl)cyclohexyl)acetic acid] and O=C(O)C[C@H]1CC[C@@H](CC(=O)N2CCc3c(C(F)(F)F)nn(Cc4ccc(F)cc4)c3C2)CC1 [Example 5-49, 2-(cis-4-(2-(1-(4-Fluorobenzyl)-3-(trifluoromethyl)-4,5-dihydro1H-pyrazolo[3,4-c]pyridin-6(7H)-yl)-2-oxoethyl)cyclohexyl)acetic acid] cannot be ordered by IC50: ≤ 100 nM for the first, ≤ 100 nM for the second.

O=C(O)C12CCC(C(=O)N3CCc4c(C(F)(F)F)nn(Cc5ccc(F)cc5)c4C3)(CC1)C2 [Example 5-50, 4-(1-(4-Fluorobenzyl)-3-(trifluoromethyl)-4,5,6,7-tetrahydro-1H-pyrazolo[3,4-c]pyridine-6-carbonyl)bicyclo[2.2.1]heptane-1-carboxylic acid] and O=C(CC12CCC(C(=O)O)(CC1)C2)N1CCc2c(C(F)(F)F)nn(Cc3ccc(F)cc3)c2C1 [Example 5-53, 4-(2-(1-(4-Fluorobenzyl)-3-(trifluoromethyl)-4,5-dihydro-1H-pyrazolo[3,4-c]pyridin-6(7H)-yl)-2-oxoethyl)bicyclo[2.2.1]heptane-1-carboxylic acid] cannot be ordered by IC50: ≤ 100 nM for the first, ≤ 100 nM for the second.

O=C(O)C12CCC(C(=O)N3CCc4c(C(F)(F)F)nn(Cc5ccc(Cl)cc5F)c4C3)(CC1)C2 [Example 5-51] and O=C(CC12CCC(C(=O)O)(CC1)C2)N1CCc2c(C(F)(F)F)nn(Cc3ccc(Cl)cc3F)c2C1 [Example 5-52, 4-(2-(1-(4-Chloro-2-fluorobenzyl)-3-(trifluoromethyl)-4,5-dihydro-1H-pyrazolo[3,4-c]pyridin-6(7H)-yl)-2-oxoethyl)bicyclo[2.2.1]heptane-1-carboxylic acid] cannot be ordered by IC50: ≤ 100 nM for the first, ≤ 100 nM for the second.

O=C(CC1C2CC3CC1CC(C(=O)O)(C3)C2)N1CCc2c(C(F)(F)F)nn(Cc3ccc(Cl)cc3F)c2C1 (centres unmarked) [Example 5-54, 4-(2-(1-(4-Chloro-2-fluorobenzyl)-3-(trifluoromethyl)-4,5-dihydro-1H-pyrazolo[3,4-c]pyridin-6(7H)-yl)-2-oxoethyl) adamantancarboxylic acid] and O=C(CC1C2CC3CC1CC(C(=O)O)(C3)C2)N1CCc2c(C(F)(F)F)nn(Cc3ccc(F)cc3)c2C1 (centres unmarked) [Example 5-55] cannot be ordered by IC50: ≤ 100 nM for the first, ≤ 100 nM for the second.

CC(C)(C)OC(=O)N1CC(CC(=O)N2CCc3c(C(F)(F)F)nn(Cc4ccc(Cl)cc4F)c3C2)C[C@@H]1C(=O)O (stereo partly drawn) [Example 5-56, (2R)-1-(tert-Butoxycarbonyl)-4-(2-(1-(4-chloro-2-fluorobenzyl)-3-(trifluoromethyl)-4,5-dihydro-1H-pyrazolo[3,4-c]pyridin-6(7H)-yl)-2-oxoethyl)pyrrolidine-2-carboxylic acid] and CC1(C(=O)O)CC(CC(=O)N2CCc3c(C(F)(F)F)nn(Cc4ccc(Cl)cc4F)c3C2)C1 (centres unmarked) [Example 6-18, 3-(2-(1-(4-Chloro-2-fluorobenzyl)-3-(trifluoromethyl)-4,5-dihydro-1H-pyrazolo[3,4-c]pyridin-6(7H)-yl)-2-oxoethyl)-1-methylcyclobutanecarboxylic acid] cannot be ordered by IC50: ≤ 100 nM for the first, ≤ 100 nM for the second.

CC(C(=O)N1CCc2c(C(F)(F)F)nn(Cc3ccc(Cl)cc3F)c2C1)C1CCC(C(=O)O)CC1 (centres unmarked) [Example 6-4, 4-(1-(1-(4-Chloro-2-fluorobenzyl)-3-(trifluoromethyl)-4,5-dihydro-1H-pyrazolo[3,4-c]pyridin-6(7H)-yl)-1-oxopropan-2-yl)cyclohexanecarboxylic acid] and O=C(O)C1CC2(CC(CC(=O)N3CCc4c(C(F)(F)F)nn(Cc5ccc(Cl)cc5F)c4C3)C2)C1 (centres unmarked) [Example 6-12, 6-(2-(1-(4-Chloro-2-fluorobenzyl)-3-(trifluoromethyl)-4,5-dihydro-1H-pyrazolo[3,4-c]pyridin-6(7H)-yl)-2-oxoethyl)spiro[3.3]heptane-2-carboxylic acid] cannot be ordered by IC50: ≤ 100 nM for the first, ≤ 100 nM for the second.

CC1(C(=O)O)CCC(CC(=O)N2CCc3c(C(F)(F)F)nn(Cc4ccc(F)cc4)c3C2)CC1 (centres unmarked) [Example 6-11, 4-(2-(1-(4-Fluorobenzyl)-3-(trifluoromethyl)-4,5-dihydro-1H-pyrazolo[3,4-c]pyridin-6(7H)-yl)-2-oxoethyl)-1-methylcyclohexanecarboxylic acid] and O=C(C[C@H]1CC[C@@H](C(=O)O)CC1)N1CCc2c(C(F)(F)F)nn(Cc3ccc(F)cc3)c2C1 [Example 7-2, cis-4-(2-(1-(4-fluorobenzyl)-3-(trifluoromethyl)-4,5-dihydro-1H-pyrazolo[3,4-c]pyridin-6(7H)-yl)-2-oxoethyl)cyclohexanecarboxylic acid] cannot be ordered by IC50: ≤ 100 nM for the first, ≤ 100 nM for the second.

O=C(O)C1CC2(CC(CC(=O)N3CCc4c(C(F)(F)F)nn(Cc5ccc(F)cc5)c4C3)C2)C1 (centres unmarked) [Example 6-13, 6-(2-(1-(4-Fluorobenzyl)-3-(trifluoromethyl)-4,5-dihydro-1H-pyrazolo[3,4-c]pyridin-6(7H)-yl)-2-oxoethyl)spiro[3.3]heptane-2-carboxylic acid] and O=C(O)[C@H]1C2C3C[C@@H]1C(CC(=O)N1CCc4c(C(F)(F)F)nn(Cc5ccc(F)cc5)c4C1)C32 (stereo partly drawn) [Example 6-17, (3R,4R)-5-(2-(1-(4-Fluorobenzyl)-3-(trifluoromethyl)-4,5-dihydro-1H-pyrazolo[3,4-c]pyridin-6(7H)-yl)-2-oxoethyl)tricyclo[2.2.1.02,6]heptane-3-carboxylic acid] cannot be ordered by IC50: ≤ 100 nM for the first, ≤ 100 nM for the second.

O=C(O)[C@H]1C2C3C[C@@H]1C(CC(=O)N1CCc4c(C(F)(F)F)nn(Cc5ccc(Cl)cc5F)c4C1)C32 (stereo partly drawn) [Example 6-16, (3R,4R)-5-(2-(1-(4-Chloro-2-fluorobenzyl)-3-(trifluoromethyl)-4,5-dihydro-1H-pyrazolo[3,4-c]pyridin-6(7H)-yl)-2-oxoethyl)tricyclo[2.2.1.02,6]heptane-3-carboxylic acid] and O=C(C[C@H]1CC[C@H](C(=O)O)CC1)N1CCc2cnn(Cc3ccc(Cl)cc3F)c2C1 [Example 7-3, trans-4-(2-(1-(4-Chloro-2-fluorobenzyl)-4,5-dihydro-1H-pyrazolo[3,4-c]pyridin-6(7H)-yl)-2-oxoethyl)cyclohexanecarboxylic acid] cannot be ordered by IC50: ≤ 100 nM for the first, ≤ 100 nM for the second.

O=C(C[C@H]1CC[C@@H](C(=O)O)CC1)N1CCc2cnn(Cc3ccc(Cl)cc3F)c2C1 [Example 7-4, cis-4-(2-(1-(4-chloro-2-fluorobenzyl)-4,5-dihydro-1H-pyrazolo[3,4-c]pyridin-6(7H)-yl)-2-oxoethyl)cyclohexanecarboxylic acid] was tested, and the IC50 was ≤ 100 nM.
